Patent publication US12120996B2, “Induction method for improving yield and fertility of 2n pollen in Camellia oleifera” (Central South University of Forestry and Technology, priority 2024, dated 2024)

Assays:
[1] = test system: Camellia oleifera 'Huaxin' 2n pollen; assay: 2n pollen fertility rate (aceto-carmine staining) after precursor application and 45° C. high-temperature treatment of flower branches; type: in vivo; details: for 2n pollen fertility rate (%): 45° C.; for k1 (K1/4, mean 2n pollen fertility rate at level 1): level 1: DMTU 5 mg/L, mannitol 0.1 g/L, ascorbic acid 0.5 mg/L, brassinolide 2.0 mg/L, sucrose 5 g/L; for k2 (K2/4, mean 2n pollen fertility rate at level 2): level 2: DMTU 10 mg/L, ascorbic acid 1.0 mg/L, sucrose 10 g/L; for k3 (K3/4, mean 2n pollen fertility rate at level 3): level 3: DMTU 15 mg/L, mannitol 1.0 g/L, brassinolide 6.0 mg/L, sucrose 15 g/L; for k4 (K4/4, mean 2n pollen fertility rate at level 4): level 4: DMTU 20 mg/L, mannitol 2.0 g/L, ascorbic acid 2.0 mg/L, brassinolide 8.0 mg/L, sucrose 30 g/L
Experimental: (§1) After the high-temperature treatment was released, Camellia oleifera grew naturally until anthers were pollinated. Pollen of each treatment was collected, and a temporary smear of the pollen was made by an aceto-carmine staining method and then photographed by an OlympusDP70 optical microscope; and a diameter of pollen in a temporary smear of each treatment was measured by Image J software, and a yield and a fertility rate of 2n pollen were counted.
(§2) Pollen stained red by aceto-carmine was counted as fertile pollen, and pollen not stained red by aceto-carmine was counted as infertile pollen (as shown in FIG. 3).
(§3) An occurrence frequency of 2n pollen was a ratio of an amount of 2n pollen to a total amount of pollen observed, and a fertility rate of 2n pollen was a ratio of an amount of fertile 2n pollen to a total amount of 2n pollen observed. […] When no high-temperature treatment is applied, an occurrence frequency of 2n pollen is 0.9%, and a fertility rate is 100%. • 2. […] Treatment conditions for 2n pollen in Camellia oleifera in the present disclosure: a leptotene stage to a pachytene stage of pollen mother cells, a style length: less than 2.57 mm, an induction temperature: 43° C. to 49° C., and an induction time: 3 h to 6 h.
(§4) Flower branches with a style length developing to 1.97 mm<L≤2.27 mm and pollen mother cells at a leptotene stage to a pachytene stage were selected as target flower branches, and DMTU solutions with different concentrations were applied to the target flower branches, respectively; and a flower branch not treated with a DMTU solution was adopted as a control.
(§5) The concentrations of the DMTU solutions were 1 mg/L, 5 mg/L, 10 mg/L, 15 mg/L, 20 mg/L, and 25 mg/L, respectively. Preparation method of a DMTU solution: DMTU was first dissolved with an appropriate amount of alcohol, and then water was added to a required concentration.
(§6) The above DMTU solutions with different concentrations each were sprayed on a flower branch, where a DMTU solution was evenly sprayed on a flower branch by a sprayer until there were condensed water droplets flowing down from leaves or flower buds; and each treatment was numbered and recorded (as shown in Table 3).
(§7) After each DMTU solution was applied, in order to avoid rapid evaporation of a solution on a leaf surface due to a high-temperature treatment, the whole flower branch was wrapped with a plastic film, and then the non-ex vivo tree branch bud heating device in the authorized patent (patent ZL200610113448.X) was immediately used to apply a 45° C. high-temperature treatment to each target flower branch for 4 h, namely, a high-temperature doubling treatment. A doubling treatment method was the same as the doubling treatment method in step 1.2 of Example 1.
(§8) After a high-temperature treatment was conducted for 4 h, a heating bag and a plastic film were removed to release the high-temperature treatment, and Camellia oleifera was allowed to grow naturally until anthers were pollinated. Pollen of each treatment was collected, and a temporary smear of the pollen was made by an aceto-carmine staining method and then photographed by an Olympus DP70 optical microscope; and a diameter of pollen was measured by Image J software, and an occurrence frequency and a fertility rate of 2n pollen were counted.
(§9) The above reagents were applied through spraying on a flower branch and injection into a flower bud. The spraying on a flower branch was as follows: a precursor solution was evenly sprayed on the flower branch by a sprayer until there were condensed water droplets flowing down from leaves or flower buds. The injection into a flower bud was as follows: a precursor solution was injected into the flower bud by a 5 mL syringe (0.5×20 mm injection needle) through a scale gap at a top of the flower bud until there were water droplets overflowing a surface of the flower bud. […]

[2] = test system: Camellia oleifera 'Huaxin' 2n pollen; assay: 2n pollen yield (occurrence frequency) after precursor application and 45° C. high-temperature treatment of flower branches; type: in vivo
Experimental: as §1, §2, §3, §4, §5, §6, §7, §8, §9

[3] = Injection into a flower bud, DMTU 10 mg/L, mannitol 0.5 g/L, ascorbic acid 1.5 mg/L, brassinolide 4.0 mg/L, 4 h (Example 2B)
[4] = Spraying on a flower branch, DMTU 10 mg/L, mannitol 0.5 g/L, ascorbic acid 1.5 mg/L, brassinolide 4.0 mg/L, 4 h (Example 2B)
[5] = mannitol 0.5 g/L, brassinolide 4.0 mg/L, in %
[6] = DMTU solution 1 mg/L sprayed on flower branch, 4 h
[7] = DMTU solution 5 mg/L sprayed on flower branch, 4 h
[8] = DMTU solution 10 mg/L sprayed on flower branch, 4 h (Example 2A)
[9] = DMTU solution 15 mg/L sprayed on flower branch, 4 h
[10] = DMTU solution 20 mg/L sprayed on flower branch, 4 h
[11] = DMTU solution 25 mg/L sprayed on flower branch, 4 h

SMILES	2n pollen fertility rate (%) [1, 3]	2n pollen fertility rate (%) [1, 4]	2n pollen yield (%) [2, 3]	2n pollen yield (%) [2, 4]	k1 (K1/4, mean 2n pollen fertility rate at level 1) ([1]; in %)	k2 (K2/4, mean 2n pollen fertility rate at level 2) [1, 5]	k3 (K3/4, mean 2n pollen fertility rate at level 3) ([1]; ascorbic acid 1.5 mg/L, in %)	k4 (K4/4, mean 2n pollen fertility rate at level 4) ([1]; in %)	other results
O=C1O[C@H]([C@@H](O)CO)C(O)=C1O [Ascorbic acid, ascorbic acid]	81.26%	79.58%	10.05%	9.76%					k1 (K1/4, mean 2n pollen fertility rate at level 1) [1]: 80.47; k2 (K2/4, mean 2n pollen fertility rate at level 2) ([1]; mannitol 0.5 g/L, brassinolide 4.0 mg/L): 83.42; k3 (K3/4, mean 2n pollen fertility rate at level 3) ([1]; ascorbic acid 1.5 mg/L): 81.04; k4 (K4/4, mean 2n pollen fertility rate at level 4) [1]: 80.24
CC(C)[C@H](C)[C@@H](O)[C@H](O)[C@@H](C)[C@H]1CC[C@H]2[C@@H]3COC(=O)[C@H]4C[C@H](O)[C@H](O)C[C@]4(C)[C@H]3CC[C@]12C [Brassinolide, brassinolide]	84.13%	82.58%	11.03%	10.83%	79.88	82.98	81.95	80.36	
CNC(=S)NC [DMTU, N,N′-Dimethylthiourea]	90.14%	86.97%	12.17%	11.52%	78.23	87.54	81.12	78.28	2n pollen yields and fertility rates compared with the control ([1]; 5 mg/L, 10 mg/L, 15 mg/L and 20 mg/L DMTU solutions sprayed on flower branches): significantly improved; 2n pollen fertility rate (%) [1, 6]: 64.25%; 2n pollen fertility rate (%) [1, 7]: 75.94%; 2n pollen fertility rate (%) [1, 8]: 86.23%; 2n pollen fertility rate (%) [1, 9]: 82.46%; 2n pollen fertility rate (%) [1, 10]: 78.61%; 2n pollen fertility rate (%) [1, 11]: 64.43%; 2n pollen yield (%) [2, 6]: 9.17%; 2n pollen yield (%) [2, 7]: 9.81%; 2n pollen yield (%) [2, 8]: 11.52%; 2n pollen yield (%) [2, 9]: 10.83%; 2n pollen yield (%) [2, 10]: 10.15%; 2n pollen yield (%) [2, 11]: 9.05%
OC[C@@H](O)[C@@H](O)[C@H](O)[C@H](O)CO [Mannitol, mannitol]	77.89%	75.94%	9.68%	9.81%	81.64	82.95	80.98	79.59	
OC[C@H]1O[C@@](CO)(O[C@H]2O[C@H](CO)[C@@H](O)[C@H](O)[C@H]2O)[C@@H](O)[C@@H]1O [Sucrose, sucrose]					80.87	80.95	82.91	80.44	
